Consider one compound from US11572590B2, “Methods for evaluating tumor cell spheroids using 3D microfluidic cell culture device” (Dana-Farber Cancer Institute, Inc., priority 2017, dated 2023).

Molecules are shown by their SMILES. Like-named read-outs stand apart in the source and are kept apart here.

Holding throughout (experiment): SelectScreen Kinase Profiling, single point inhibition and IC50 for off-target kinases
Holding throughout (assay type): biochemical

Test [1] addresses off-target kinases (Homo sapiens, UniProt P05129). Conditions: PRKCG (PKC gamma); Cmpd1 1000 μM; ATP Km app; ZLYTE.
The target in test [2] is off-target kinases (Homo sapiens, UniProt Q9H422). Conditions: HIPK3 (YAK1), ZLYTE, ATP Km app.
off-target kinases (Homo sapiens, UniProt Q9H422), sequence (Q9H422 whole entry): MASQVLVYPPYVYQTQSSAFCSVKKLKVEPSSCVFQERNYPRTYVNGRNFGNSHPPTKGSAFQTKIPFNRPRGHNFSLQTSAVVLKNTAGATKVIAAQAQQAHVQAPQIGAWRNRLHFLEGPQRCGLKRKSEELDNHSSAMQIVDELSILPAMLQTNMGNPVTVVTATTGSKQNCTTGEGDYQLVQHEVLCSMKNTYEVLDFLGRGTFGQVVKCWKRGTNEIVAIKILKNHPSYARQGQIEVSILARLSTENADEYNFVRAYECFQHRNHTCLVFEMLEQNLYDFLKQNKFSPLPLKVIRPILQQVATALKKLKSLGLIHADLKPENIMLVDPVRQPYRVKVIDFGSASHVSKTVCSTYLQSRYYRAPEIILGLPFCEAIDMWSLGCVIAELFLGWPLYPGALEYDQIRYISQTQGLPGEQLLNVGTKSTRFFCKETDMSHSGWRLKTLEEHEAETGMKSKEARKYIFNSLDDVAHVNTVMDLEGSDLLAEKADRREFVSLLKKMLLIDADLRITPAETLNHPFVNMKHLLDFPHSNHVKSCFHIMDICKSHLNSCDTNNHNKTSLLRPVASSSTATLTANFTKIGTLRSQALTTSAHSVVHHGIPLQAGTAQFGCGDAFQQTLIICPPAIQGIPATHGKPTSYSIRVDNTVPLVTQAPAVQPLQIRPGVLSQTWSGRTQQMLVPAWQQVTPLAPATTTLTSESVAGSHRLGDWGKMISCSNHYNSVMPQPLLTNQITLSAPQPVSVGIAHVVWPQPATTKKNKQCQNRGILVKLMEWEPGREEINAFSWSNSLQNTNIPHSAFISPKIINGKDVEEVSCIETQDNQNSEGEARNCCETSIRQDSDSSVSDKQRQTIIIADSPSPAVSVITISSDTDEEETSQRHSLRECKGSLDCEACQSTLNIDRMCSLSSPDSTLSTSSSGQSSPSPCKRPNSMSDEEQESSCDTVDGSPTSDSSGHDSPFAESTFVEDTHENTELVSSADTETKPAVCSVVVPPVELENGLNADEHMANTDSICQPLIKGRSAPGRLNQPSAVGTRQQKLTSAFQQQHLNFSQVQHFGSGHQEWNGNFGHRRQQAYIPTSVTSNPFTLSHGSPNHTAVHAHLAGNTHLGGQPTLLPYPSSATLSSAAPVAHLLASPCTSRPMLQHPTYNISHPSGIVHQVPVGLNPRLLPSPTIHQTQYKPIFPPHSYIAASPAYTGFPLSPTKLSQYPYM
Test [3] addresses off-target kinases (Homo sapiens, UniProt Q9UIK4). Conditions: DAPK2, LanthaScreen Binding. (In general: In TR-FRET formats the signal depends on donor and acceptor labels being close together.)
The target of test [4] is off-target kinases (Homo sapiens, UniProt Q9H4B4). The conditions noted are these: PLK3, ATP Km app, ZLYTE.
off-target kinases (Homo sapiens, UniProt Q9H4B4), sequence (Q9H4B4 whole entry): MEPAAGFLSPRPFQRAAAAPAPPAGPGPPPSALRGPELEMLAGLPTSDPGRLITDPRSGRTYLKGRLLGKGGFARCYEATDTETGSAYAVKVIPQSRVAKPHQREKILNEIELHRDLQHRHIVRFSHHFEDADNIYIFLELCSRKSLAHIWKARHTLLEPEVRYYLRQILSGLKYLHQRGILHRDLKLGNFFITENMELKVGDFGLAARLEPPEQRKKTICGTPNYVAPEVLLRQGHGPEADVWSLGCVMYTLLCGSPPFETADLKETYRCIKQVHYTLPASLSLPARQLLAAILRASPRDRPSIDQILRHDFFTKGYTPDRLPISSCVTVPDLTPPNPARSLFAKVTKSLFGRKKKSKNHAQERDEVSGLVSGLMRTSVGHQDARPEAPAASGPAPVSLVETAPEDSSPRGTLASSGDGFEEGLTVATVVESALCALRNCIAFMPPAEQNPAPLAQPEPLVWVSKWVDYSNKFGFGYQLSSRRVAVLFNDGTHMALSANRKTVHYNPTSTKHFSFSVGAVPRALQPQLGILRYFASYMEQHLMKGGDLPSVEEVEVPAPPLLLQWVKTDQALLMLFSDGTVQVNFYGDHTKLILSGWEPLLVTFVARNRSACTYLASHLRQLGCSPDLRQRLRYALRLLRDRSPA
Test [5] concerns the target off-target kinases (Homo sapiens, UniProt P22455). Conditions: FGFR4, ZLYTE, ATP Km app.
For test [6], the target named is off-target kinases (Homo sapiens, UniProt Q13177). The conditions noted are these: PAK2 (PAK65), ZLYTE, ATP Km app.
off-target kinases (Homo sapiens, UniProt Q13177), sequence (Q13177 whole entry): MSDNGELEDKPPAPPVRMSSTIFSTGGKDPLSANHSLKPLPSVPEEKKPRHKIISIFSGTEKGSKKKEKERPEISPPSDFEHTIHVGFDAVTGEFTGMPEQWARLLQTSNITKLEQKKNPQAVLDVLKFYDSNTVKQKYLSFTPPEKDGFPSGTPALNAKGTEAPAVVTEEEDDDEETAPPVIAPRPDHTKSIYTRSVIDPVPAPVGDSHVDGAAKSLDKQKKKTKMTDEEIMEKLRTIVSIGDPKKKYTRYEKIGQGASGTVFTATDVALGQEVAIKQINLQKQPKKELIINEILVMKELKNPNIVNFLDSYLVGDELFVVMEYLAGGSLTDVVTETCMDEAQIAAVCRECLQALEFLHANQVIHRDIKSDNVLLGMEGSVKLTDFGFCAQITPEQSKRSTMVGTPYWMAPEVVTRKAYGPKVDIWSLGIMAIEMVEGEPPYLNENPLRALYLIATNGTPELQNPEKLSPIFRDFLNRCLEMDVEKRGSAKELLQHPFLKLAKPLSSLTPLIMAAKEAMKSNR
The target of test [7] is off-target kinases (Homo sapiens, UniProt Q9P0L2). Conditions: MARK1 (MARK), ATP Km app, ZLYTE.
off-target kinases (Homo sapiens, UniProt Q9P0L2), sequence (Q9P0L2 whole entry): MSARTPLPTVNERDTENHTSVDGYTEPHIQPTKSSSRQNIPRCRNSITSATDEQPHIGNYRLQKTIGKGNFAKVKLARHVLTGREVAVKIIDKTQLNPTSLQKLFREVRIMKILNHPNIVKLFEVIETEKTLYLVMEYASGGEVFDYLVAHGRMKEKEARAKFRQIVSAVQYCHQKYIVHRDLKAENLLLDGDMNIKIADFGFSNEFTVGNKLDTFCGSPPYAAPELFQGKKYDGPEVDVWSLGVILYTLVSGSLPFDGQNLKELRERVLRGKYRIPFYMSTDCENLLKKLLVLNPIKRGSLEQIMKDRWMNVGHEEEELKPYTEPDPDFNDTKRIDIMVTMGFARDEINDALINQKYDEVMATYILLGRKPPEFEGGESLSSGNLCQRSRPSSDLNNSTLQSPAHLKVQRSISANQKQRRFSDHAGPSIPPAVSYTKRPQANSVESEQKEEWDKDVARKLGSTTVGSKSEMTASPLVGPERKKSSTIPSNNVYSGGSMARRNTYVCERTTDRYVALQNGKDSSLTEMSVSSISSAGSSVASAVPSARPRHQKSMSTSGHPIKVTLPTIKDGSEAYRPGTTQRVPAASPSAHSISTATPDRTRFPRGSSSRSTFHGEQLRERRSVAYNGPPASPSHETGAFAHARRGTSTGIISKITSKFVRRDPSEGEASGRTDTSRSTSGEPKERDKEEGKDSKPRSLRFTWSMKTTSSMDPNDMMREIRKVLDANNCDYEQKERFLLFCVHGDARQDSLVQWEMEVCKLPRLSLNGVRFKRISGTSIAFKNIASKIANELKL
Test [8] addresses T1, off-target kinases (Homo sapiens, UniProt P29322).
T1 sequence (P29322 28-1005): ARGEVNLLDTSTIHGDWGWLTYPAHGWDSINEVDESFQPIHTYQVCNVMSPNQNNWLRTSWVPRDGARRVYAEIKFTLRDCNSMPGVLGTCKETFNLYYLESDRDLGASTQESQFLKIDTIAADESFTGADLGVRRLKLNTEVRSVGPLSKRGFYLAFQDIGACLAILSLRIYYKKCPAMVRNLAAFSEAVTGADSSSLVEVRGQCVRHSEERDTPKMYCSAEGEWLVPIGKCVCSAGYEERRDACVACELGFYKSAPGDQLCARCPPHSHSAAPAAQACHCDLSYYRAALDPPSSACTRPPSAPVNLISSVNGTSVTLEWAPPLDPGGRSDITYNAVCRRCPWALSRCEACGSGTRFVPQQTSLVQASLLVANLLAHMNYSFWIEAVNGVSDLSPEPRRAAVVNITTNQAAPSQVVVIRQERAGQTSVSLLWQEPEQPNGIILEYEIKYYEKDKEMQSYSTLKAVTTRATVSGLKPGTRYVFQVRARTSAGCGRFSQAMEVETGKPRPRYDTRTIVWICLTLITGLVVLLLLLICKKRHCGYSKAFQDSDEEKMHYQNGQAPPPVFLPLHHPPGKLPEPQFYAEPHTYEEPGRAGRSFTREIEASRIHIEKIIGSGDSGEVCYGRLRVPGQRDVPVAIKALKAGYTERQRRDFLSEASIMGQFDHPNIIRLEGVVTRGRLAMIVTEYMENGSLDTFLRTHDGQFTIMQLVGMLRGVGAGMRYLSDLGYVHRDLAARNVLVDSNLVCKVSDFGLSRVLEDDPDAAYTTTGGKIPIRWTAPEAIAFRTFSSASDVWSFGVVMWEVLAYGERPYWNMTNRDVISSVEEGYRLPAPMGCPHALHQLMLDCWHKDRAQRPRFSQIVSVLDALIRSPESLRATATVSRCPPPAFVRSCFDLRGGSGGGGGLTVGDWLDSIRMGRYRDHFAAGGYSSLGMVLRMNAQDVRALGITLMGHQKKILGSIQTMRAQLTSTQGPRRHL
Conditions: EPHA8, ZLYTE, ATP Km app.

off-target kinases (Homo sapiens, UniProt Q9UIK4), sequence (Q9UIK4 whole entry): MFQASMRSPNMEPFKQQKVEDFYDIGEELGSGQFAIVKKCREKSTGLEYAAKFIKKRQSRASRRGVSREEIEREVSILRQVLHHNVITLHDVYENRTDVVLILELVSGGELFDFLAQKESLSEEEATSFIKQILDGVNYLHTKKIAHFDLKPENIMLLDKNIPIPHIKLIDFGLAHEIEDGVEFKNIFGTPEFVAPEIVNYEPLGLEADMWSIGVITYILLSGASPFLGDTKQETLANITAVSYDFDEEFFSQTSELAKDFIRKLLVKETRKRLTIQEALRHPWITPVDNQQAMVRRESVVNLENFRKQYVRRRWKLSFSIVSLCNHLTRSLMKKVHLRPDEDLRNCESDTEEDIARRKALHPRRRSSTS
off-target kinases (Homo sapiens, UniProt P22455), sequence (P22455 22-802): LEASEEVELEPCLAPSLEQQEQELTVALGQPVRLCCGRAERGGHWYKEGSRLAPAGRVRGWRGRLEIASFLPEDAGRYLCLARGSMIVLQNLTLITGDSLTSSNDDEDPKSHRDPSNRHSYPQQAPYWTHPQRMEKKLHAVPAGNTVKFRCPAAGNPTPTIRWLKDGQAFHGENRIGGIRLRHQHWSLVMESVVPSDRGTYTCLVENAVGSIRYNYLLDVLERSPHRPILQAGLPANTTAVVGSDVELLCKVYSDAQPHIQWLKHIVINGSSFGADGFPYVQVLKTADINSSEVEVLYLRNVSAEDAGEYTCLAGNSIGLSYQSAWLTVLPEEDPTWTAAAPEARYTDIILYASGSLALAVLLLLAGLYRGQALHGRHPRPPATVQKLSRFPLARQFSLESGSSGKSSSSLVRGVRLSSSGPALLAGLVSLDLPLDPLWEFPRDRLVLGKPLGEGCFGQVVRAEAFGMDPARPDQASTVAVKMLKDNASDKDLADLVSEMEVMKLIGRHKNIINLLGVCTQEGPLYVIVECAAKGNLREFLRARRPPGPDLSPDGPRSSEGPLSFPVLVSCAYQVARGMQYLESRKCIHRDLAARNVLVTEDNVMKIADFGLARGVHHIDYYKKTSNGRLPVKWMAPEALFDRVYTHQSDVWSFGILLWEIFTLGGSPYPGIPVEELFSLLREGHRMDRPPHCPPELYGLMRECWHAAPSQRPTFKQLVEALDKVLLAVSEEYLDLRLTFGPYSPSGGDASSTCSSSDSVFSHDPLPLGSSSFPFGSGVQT

A word on the inhibition: it is the drop in the measured response relative to a control, in per cent. With `N#Cc1cc(-c2ncnc(Nc3ccc(N4CCN(C5COC5)CC4)cc3)n2)ccc1OC1CCOCC1` [Compound 1, 5-(4-((4-(4-(oxetan-3-yl)piperazin-1-yl)phenyl)amino)-1,3,5-triazin-2-yl)-2-((tetrahydro-2H-pyran-4-yl)oxy)benzonitrile], on off-target kinases [1], the “% Inhibition 1” value was −9%. Further, at off-target kinases [1], the “% Inhibition 2” value is −1%. On off-target kinases [1], the “% Inhibition Avg” value was −5%. Besides, the inhibition was found to be 15% at off-target kinases [2] (read-out: % Inhibition 1); 11% at off-target kinases [2] (read-out: % Inhibition 2); 13% on off-target kinases [2] (read-out: % Inhibition Avg); 60% at off-target kinases [3] (read-out: % Inhibition 1); 53% on off-target kinases [3] (read-out: % Inhibition 2); 56% on off-target kinases [3] (read-out: % Inhibition Avg). The inhibition on off-target kinases [4] (read-out: % Inhibition 1) was 80%; on off-target kinases [4] (read-out: % Inhibition 2) it was 76%; at off-target kinases [4] (read-out: % Inhibition Avg), 78%; on off-target kinases [5] (read-out: % Inhibition 1), 7%; on off-target kinases [5] (read-out: % Inhibition 2) it was -2%; at off-target kinases [5] (read-out: % Inhibition Avg), 3%. The inhibition at off-target kinases [6] (read-out: % Inhibition 1) was 6%; at off-target kinases [6] (read-out: % Inhibition 2), -1%; on off-target kinases [6] (read-out: % Inhibition Avg) it was 3%; at off-target kinases [7] (read-out: % Inhibition 1), 85%; on off-target kinases [7] (read-out: % Inhibition 2) it was 87%; on off-target kinases [7] (read-out: % Inhibition Avg), 86%. Moreover, the inhibition on off-target kinases [8] (read-out: % Inhibition 1) worked out at 11%; at off-target kinases [8] (read-out: % Inhibition 2), 7%; at off-target kinases [8] (read-out: % Inhibition Avg), 9%.
